Experimental data published in US11679082B2, “Therapeutic constructs for co-delivery of mitotic kinase inhibitor and immune checkpoint inhibitor” (Oregon Health & Science University, priority 2019, dated 2023).

What was measured:
[1] = test system: PD-L1; experiment: PD-L1 surface expression of LLC-JSP cells by flow cytometry; format: cell-based, mouse; settings: 500 ng/ml inhibitor
Source text: FIGS. 3A-3C. […] (FIG. 3A) PLK1 and PD-L1 mRNA expression in A549 (human NSCLC) at 48 hr post treatment with PLK1 siRNA (siPLK1) or scrambled siRNA (siSCR) normalized to HPRT housekeeping gene. Data presented as mean±SD from triplicates; ****P<0.0001. (FIG. 3B) PD-L1 surface expression of A549 ([…]) and LLC-JSP (a mouse NSCLC, FIG. 3C) at 72 hr post treatments assessed by flow cytometry (10,000 events per sample). Mouse siPLK1 seq. […] (SEQ ID NO: 1); Human siPLK1 seq. […] (SEQ ID NO: 2).
FIGS. 4A-4C Treatment effects of mitotic kinase inhibitors on (A) 3-day viability of LLC-JSP cells, (B) PD-L1 expression levels of surviving cells post treatment with 500 ng/ml of volasertib, alisertib, or AZD7762 as determined by flow cytometry and (C) their quantification.
FIGS. 6A-6D Nanoparticle delivery of PLK1 inhibitor volasertib (iPLK1-NP) to mouse NSCLC cells. (FIG. 6A) Schematic of synthesis of iPLK1-NP. (FIG. 6B) Hydrodynamic size of NP (with no inhibitor) and iPLK1-NP measured with Zetasizer. (FIG. 6C) Viability of LLC-JSP cells treated with volasertib (in 1% DMSO/PBS), iPLK1-NP (in PBS), or 1% DMSO/PBS for 4 days. Data presented as mean±SD from 4 independent samples; ****P<0.0001. (FIG. 6D) PD-L1 surface expression of LLC-JSP cells treated with PBS or iPLK1-NP (42 μg/ml NP, 210 ng/ml volasertib) for 3 days.
FIGS. 7A-7E. Nanoparticle for co-delivery of PLK1 inhibitor (iPLK1) and PD-L1 antibody (p-iPLK1-NP). (FIG. 7A) Schematic and (FIG. 7B) hydrodynamic size of p-iPLK1-NP containing 4 wt. % of PD-L1 antibody and 0.5 wt. % of PLK1 inhibitor. (FIG. 7C) 5-day cell viability of LLC-JSP cells treated with iPLK1-NP or p-iPLK1-NP. Data presented as mean±SD from 4 independent samples; ns—not significant. PD-L1 surface expression assessed by flow cytometry after LLC-JSP cells were incubated with various treatments as specified for (FIG. 7D) 2 hrs and (FIG. 7E) 2 days. […]
Flow cytometry: Cells (100K cells/well) were plated in 6 well plates overnight and treated with indicated treatments the next day. […] Cells were then washed with FACs buffer and analyzed with Guava (50,000 events per sample).

[2] = test system: LLC-JSP cells; experiment: Cell viability of LLC-JSP cells (Cell Titer Glo); format: cell-based, mouse; settings: 4 days, dose-dependent
Experimental: (FIG. 14B) Treatment effect of ADC versus free alisertib of equivalent dose on viability of LLC-JSP cells (2-days). […] (FIG. 14C) Effect of PD-L1 on the viability of LLC-JSP cells.
Cell viability after treatments: Cells (1500/well) were plated in white flat bottom 96 well plate overnight. The following day, cells were treated with indicated treatments and media was changed 24 hr post treatment. 3-5 day post treatment, cell viability was assessed using Cell Titer Glo assay (Promega) following manufacturer's instructions. Luminescence was read with Tecan plate reader.

[3] = test system: acute myeloid leukemia; settings: phase III; cited from earlier work
[4] = test system: lung cancer; settings: phase II, 300 mg once every 3 weeks; cited from earlier work
[5] = test system: A549; experiment: Cell cycle arrest in G2/M phase in A549; format: cell-based, human; settings: A549, 72 hr post treatment; siRNA 50 nM, BI 2536 10 nM
Experimental: FIGS. 2A-2D. Effects of siRNA against mitotic regulator PLK1 (siPLK1) on non-small-cell lung carcinoma (NSCLC) cell lines (A549 and H460). (FIG. 2A) 48-hr PLK1 mRNA knockdown (HPRT used as house-keeping gene) and (FIG. 2B) 72-hr PLK1 protein reduction at 50 nM siRNA dose. (FIG. 2C) 4-day cell viability at 30 nM siRNA dose. (FIG. 2D) Cell cycle arrest increase in G2/M phase in A549 72 hr post treatment. Antibody (cetuximab) conjugated NP was used to deliver the siPLK1 (C-siPLK1-NP) or scrambled siRNA control (C-siSCR-NP) at 50 nM siRNA BI 2536 (a PLK1 inhibitor) was used as a drug benchmark at 10 nM. Data presented as mean±SD from independent duplicates (10,000 events per sample); ****P<0.0001 vs. untreat control. Unless specified otherwise, “NP” denotes mesoporous silica nanoparticles coated with cross-linked PEI and PEG, as described in Ngamcherdtrakul et al., Advanced Functional Materials, 25(18):2646-2659, 2015 and U.S. Patent Application Publication No. 2017/0173169.

Row | Compound | surface PD-L1 level of surviving cells [1] | viability of LLC-JSP cells vs vehicle [2] | primary endpoint of objective response [3] | response as monotherapy [4] | cell cycle arrest in G2/M [5]
1 | NC(=O)Nc1cc(-c2cccc(F)c2)sc1C(=O)N[C@H]1CCCNC1 [AZD7762] | upregulated surface PD-L1 level |  |  |  | 
2 | CC[C@@H]1C(=O)N(C)c2cnc(Nc3ccc(C(=O)N[C@H]4CC[C@H](N5CCN(CC6CC6)CC5)CC4)cc3OC)nc2N1C(C)C [volasertib] | upregulated surface PD-L1 level | significantly reduced cell viability | failed to meet primary endpoint of objective response | lack of response | 
3 | CC[C@@H]1C(=O)N(C)c2cnc(Nc3ccc(C(=O)NC4CCN(C)CC4)cc3OC)nc2N1C1CCCC1 [B12536] |  |  |  |  | G2/M growth arrest
4 | COc1cc(Nc2ncc3c(n2)-c2ccc(Cl)cc2C(c2c(F)cccc2OC)=NC3)ccc1C(=O)O [alisertib] | upregulated surface PD-L1 level |  |  |  | 
